Data taken from patent publication US4362746A (priority 1981, dated 1982).
Where a name gives a salt, the structure may show the parent alone. Read-outs that look alike come from different tables or passages of the source.

What was measured:
[1] = tested on: Influenza A2 /MTL/68; assay: In vitro anti-myxovirus assay, inhibition of hemadsorption, Influenza A2/MTL/68 in G-2 cells; type: cell-based, Influenza A2 /Montreal/68; conditions: for inhibition at 5 µg/mL: 5 ug/ml; for inhibition at 10 µg/mL: 10 ug/ml; for inhibition at 25 µg/mL: 25 ug/ml; for inhibition at 33 µg/mL: 33 ug/ml; for inhibition at 50 µg/mL: 50 ug/ml
[2] = tested on: Influenza A/Swine/1976/31; assay: microbe, parasite or virus in culture; type: cell-based; conditions: in Sus scrofa
[3] = tested on: Influenza B/MASS/66; assay: In vitro anti-myxovirus assay, inhibition of hemadsorption, Influenza B/MASS/66 in G-2 cells; type: cell-based; conditions: Influenza B virus, 56 TCID50
Description: In preparing the compounds for testing, they were handled aseptically throughout. The compounds were dissolved in a minimum amount of a suitable solvent and the final dilutions were made up to the required volume in a complete culture medium used in assay and in concentration not exceeding the predetermined maximum non-toxic levels.
The antiviral assays were done in tissue cultures infected with an appropriate dose of an influenza virus.
The cell culture used in all in vitro anti-myxovirus assays was an established cell line of the human conjunctiva (G-2 cells). The cytotoxic studies of each of the compounds were performed prior to testing for antiviral activity to determine level of response of the cells to the potentially toxic action of the compounds.
For the antiviral assays the cells were grown in triplicates per dilution of compound in test tubes in a suitable medium. Immediately before use the initial medium was replaced with the one containing the test compound in an appropriate concentration. After virus was added at approximately 10 and 100 TCID50 dose levels the infected culture was incubated at 32° C. for a number of days. The medium was then drained, red blood cells added and after washing, the extent of hemadsorption evaluated. The percentage of inhibition of adsorption (a measure of antiviral activity) was then calculated. In all anti-myxovirus testing in vitro, as well as in vivo, amantadine (a known antiviral agent) was used as a reference standard.

[4] = tested on: influenza virus A2 /Aichi/2/68; type: in vivo, mice (Charles River, random bred white, female); conditions: for Mean Survival Time / Survival % / Survival N (surviving animals / total infected) / Mean Survival Time Increase: 16 days; for Mean Survival Time Increase: vs virus only
[5] = tested on: G-2 cells; conditions: human, g-2 cells
[6] = in vivo; conditions: mouse
[7] = in vivo; conditions: mouse; remark: listed apart in the source
[8] = in vitro; conditions: human, g-2 cells
[9] = Acute toxicity in mice; conditions: mouse, in vivo
[10] = tested on: mice; assay: Acute toxicity in mice; conditions: after 24 hours
[11] = Subacute toxicity in mice; conditions: mouse, in vivo
[12] = tested on: mice; assay: Subacute toxicity in mice; conditions: for Subacute LD0 (non-lethal dose): once a day, seventeenth day of treatment
[13] = U.S. Pat. Nos. 3,932,512 and 4,046,811; cited from earlier work
[14] = Exp. 2, virus dose 2.0 LD50, 300 mg/kg/day IP
[15] = Exp. 3, virus dose 2.6 LD50, 200 mg/kg/day IP
[16] = Exp. 4, virus dose 3.0 LD50, 200 mg/kg/day IP

`CN(C)C[C@H]1[C@@H](N)[C@@H]2C[C@H]1c1ccccc12` (relative stereo) [Compound B, endo-3-dimethylaminomethyl-endo-2-amino-1,2,3,4-tetrahydro-1,4-methanonaphthalene dihydrochloride] showed an inhibition at 5 µg/mL ([1]; 32 TCID50) of 0%, an inhibition at 10 µg/mL ([1]; 32 TCID50) of 30% and an inhibition at 25 µg/mL ([1]; 32 TCID50) of 78%. It also gave an inhibition at 33 µg/mL ([1]; 32 TCID50) of 93%, an inhibition at 50 µg/mL ([1]; 32 TCID50) of 93% and an inhibition at 5 µg/mL ([1]; 316 TCID50) of 0%. For the same molecule, the inhibition at 10 µg/mL ([1]; 316 TCID50) was 0%, the inhibition at 25 µg/mL ([1]; 316 TCID50) was 70% and the inhibition at 33 µg/mL ([1]; 316 TCID50) was 76%. It also gave an inhibition at 50 µg/mL ([1]; 316 TCID50) of 83%, an inhibition at 5 µg/mL ([2]; 316 TCID50, 5 ug/ml) of 0% and an inhibition at 10 µg/mL ([2]; 316 TCID50, 10 ug/ml) of 70%. For the same molecule, the inhibition at 25 µg/mL ([2]; 316 TCID50, 25 ug/ml) was 92%, the inhibition at 33 µg/mL ([2]; 316 TCID50, 33 ug/ml) was 100% and the inhibition at 10 µg/mL ([3]; 10 ug/ml) was 0%. It also gave an inhibition at 25 µg/mL ([3]; 25 ug/ml) of 17%, an inhibition at 33 µg/mL ([3]; 33 ug/ml) of 43% and an inhibition at 50 µg/mL ([3]; 50 ug/ml) of 73%. The “Mean Survival Time” value [4, 14] was 14.5 days, the Survival % [4, 14] was 70% and the “Survival N (surviving animals / total infected)” value [4, 14] was 14/20. For the same molecule, the “Mean Survival Time Increase” value [4, 14] was “+2.1 Days”, the “Mean Survival Time” value [4, 15] was 13.2 days and the Survival % [4, 15] was 40%. The “Survival N (surviving animals / total infected)” value [4, 15] was 8/20, the “Mean Survival Time Increase” value [4, 15] was “+2.1 Days” and the “Mean Survival Time” value [4, 16] was 13.5 days. For the same molecule, the Survival % [4, 16] was 45%, the “Survival N (surviving animals / total infected)” value [4, 16] was 9/20 and the “Mean Survival Time Increase” value [4, 16] was “+2.2 Days”. For the same molecule, the “antiviral effect against influenza virus infection” value ([4]; administered intraperitoneally, […]) was “significant antiviral effect”, the “Cytotoxicity CTD50” value [5] was over 100 µg/mL and the NOAEL at 24 h ([6]; ip) was over 750 mg/kg/day. It also gave an NOAEL at 24 h ([6]; po) of over 750 mg/kg/day, an NOAEL at 408 h ([7]; ip) of 400 mg/kg/day and an NOAEL at 408 h ([7]; po) of 750 mg/kg/day. For the same molecule, the MNTC ([8]; Cytotoxicity CTD0, maximal non-toxic concentration) was 50 µg/mL, the CC50 ([8]; Cytotoxicity CTD50) was 100 µg/mL and the LD50 at 24 h ([9]; ip) was 550 mg/kg. The LD50 at 24 h ([9]; po) was over 750 mg/kg, the “Acute LD0 (non-lethal dose)” value ([10]; IP) was 450 mg/kg/day and the “Acute LD0 (non-lethal dose)” value ([10]; PO) was over 750 mg/kg/day. For the same molecule, the LD50 at 408 h ([11]; ip) was 500 mg/kg, the LD50 at 408 h ([11]; po) was over 750 mg/kg and the “Subacute LD0 (non-lethal dose)” value ([12]; IP) was 450 mg/kg/day. The “Subacute LD0 (non-lethal dose)” value ([12]; PO) was over 750 mg/kg/day and the “clinical sign of toxicity (weight)” value ([12]; PO, subacute, at TD0 750) was “Slight loss of weight”.

In the case of `N[C@H]1C[C@H]2C[C@@H]1c1ccccc12` (relative stereo) [isomer with the amino substituent taking up the exo configuration], the antiviral activity [13] is given as “showed no antiviral activity”.

In the case of `N[C@@H]1C[C@H]2C[C@@H]1c1ccccc12` (relative stereo) [1,2,3,4-tetrahydro-1,4-methanonaphthalen-endo-2-amine], the antiviral activity [13] is given as “exhibited antiviral activity”.
